# Columns and labels:
# [1] = tested on: isolated soleus muscle; test: Basal and insulin-stimulated 2-deoxyglucose uptake in isolated soleus muscle; parameters: species or system mice; conditions: 0.1 m-unit of insulin/ml, 2 h preincubation, 2-deoxyglucose uptake 15 min
# Method: (A) Representative immunoblot of GLUT4 protein expression along with combined densitometric analysis. Muscle from 3 SCD1+/+ and 3 SCD1−/− mice were pooled. Plasma membranes were prepared as described in Example 1. Equal amount of protein was separated by SDS-PAGE and immunoblotted with GLUT4 antibody. Experiment was repeated three times. Data are shown as means±SD. *P<0.05 vs controls. Nitrocellulose membrane was stripped and reprobed with GAPDH antibody to ensure equal loading of the protein. (B) Glucose uptake measured in vivo in soleus and gastrocnemius muscles. […] The 2-deoxyglucose uptake was calculated as the difference between the total muscle radioactivity and the radioactivity of the muscle extracellular space measured using [1-^3H] mannitol. […]
# Determination of plasma membrane GLUT4 levels, glucose uptake and glucose oxidation. Muscle plasma membranes were prepared from muscle of SCD1−/− and SCD1+/+ mice and GLUT4 levels were determined as described in Agote, M. et al. (2001) Am. […] The scintillation cocktail was added and radioactivity was counted in a liquid scintillation counter. The 2-deoxyglucose (2-DG) uptake was calculated as the difference between the total muscle radioactivity and the radioactivity of the muscle extracellular space. […] Glucose oxidation was determined in thin slices (20-30 mg) of gastrocnemius muscle as described in Baque, S. et al. (2001) Am. […]
# [2] = Insulin tolerance test; type: in vivo; conditions: SCD1-/- mice compared with wild-type mice
# Description: Animals and Diets. SCD1−/− mice in SV129 background were generated and genotyped as described in Miyazaki, M. et al. (2001) J. Nutr. 131, 2260-2268. The wild-type (SCD1+/+), heterozygous (SCD1+/−) and homozygous (SCD1−/−) mice are housed and bred in a pathogen-free barrier facility of the Department of Biochemistry (University of Wisconsin, Madison) operating at room temperature in a 12-h light/12-h dark cycle. The breeding of these animals was in accordance with the protocols approved by the animal care research committee of the University of Wisconsin. At 3 weeks of age, the mice were fed ad libitum a standard laboratory chow diet or a high-fat diet for 23 weeks. The high-fat diet contains 195 g/kg casein, 3 g/kg DL-methionine, 377 g/kg sucrose, 150 g/kg corn starch, 153 g/kg anhydrous milkfat, 10 g/kg corn oil, 1.5 g/kg cholesterol, 60.067 g/kg cellulose, 35 g/kg mineral mix AIN-76 (170915), 4 g/kg calcium carbonate, 10 g/kg vitamin mix Teklad (40060), 1.2 g/kg choline bitartrate, and 0.033 g/kg ethoxyquin (antioxidant). The weight of each mouse within each group was measured weekly; the data are presented as means±SD (n=8, P<0.001). The glucose tolerance and insulin tolerance were determined as described in Stoehr, J. P. et al. (2000) Diabetes 49, 1946-1954.
substance,measurement,setting,value
insulin,insulin-mediated glucose uptake (fold),[1]; isolated soleus muscle from SCD1+/+ mice,1.6 fold
same,insulin-mediated glucose uptake (fold),[1]; isolated soleus muscle from SCD1-/- mice,2.1 fold
same,glucose lowering effect of insulin,[2],greater in the SCD1−/− mice than wild-type mice

# Reference: patent US20120164154A1, “METHOD FOR INCREASING INSULIN SENSITIVITY AND FOR TREATING AND PREVENTING TYPE 2 DIABETES” (priority 2002, published 2012)
